Measurements as given in patent US7524487B2, “Compositions and methods for modulating interleukin-10” (University of Maryland, priority 2005, dated 2009).
Read-outs that look alike come from different tables or passages of the source.

Key:
[1] = test system: ERK1/2; experiment: Western blot of ERK activation (phospho-ERK) in macrophages; assay type: cell-based, mice; conditions: macrophages stimulated with LPS 10 ng/ml plus the agent, versus LPS alone
Description: FIG. 1 is a Western blot showing the kinetics of MAPK activation in bone marrow derived macrophages (BMMφ) stimulated with (LPS) alone or LPS in combination with E-IgG, an immune complex that ligates the FcγR. BMMφ were stimulated with LPS (10 ng/ml)±E-IgG. Cells were then lysed at the indicated times and equal amounts of whole cell lysates were separated by SDS PAGE and analyzed by Western blotting using phospho-specific Abs to ERK1/2, p38 or JNK. Total ERK1/2 (bottom panel) was used as the loading control.
Western blots. 2×10^6 BMMφper well were plated overnight in 60 mm culture dishes. […]
Cells were lysed at various indicated times and ERK activation was measured by Western Blot using antibodies to phosphorylated ERK (FIG. 9B).
ERK activation was analyzed at the indicated times by Western Blot, using antibodies to phosphorylated ERK.

[2] = test system: bone marrow derived macrophages (BMMφ); experiment: Cytokine ELISA on supernatants of stimulated bone marrow derived macrophages (LPS ± E-IgG)
[3] = test system: IL-10 promoter; experiment: ChIP of histone H3 phosphorylation at the IL-10 promoter in stimulated BMMφ; assay type: cell-based, mice; conditions: BMMφ pretreated 30 min with PD98059 10 μM or SB203580 1 μM, then IgG-OVA + LPS for 40 min
Description: BMMφ were stimulated with medium (open bars), LPS (solid bars) or E-IgG+LPS (striped bars) for 15 minutes (A), or the indicated times (B) and ChIP assays were carried out as described in Materials and Methods. Immunoprecipitations utilized antibodies specific to phospho-H3 (left panel) or acetyl-H3 (right panel). A. conventional RT-PCR and B. real time PCR were carried out using IL-10 promoter or IL-12p40 promoter specific primers. For real time PCR, samples were normalized to input DNA controls.
Cells were pretreated with PD98059 (10 μM), SB203580 (1 μM) or medium for 30 min then stimulated with medium (open bar), IgG-OVA (dotted bar), LPS (solid bar), or both (striped bars) for 40 min. ChIP analysis was carried out using a phospho-H3 specific Ab. A. Conventional RT-PCR was carried out using IL-10 promoter or IL-12p40 promoter specific primers. B. Real time PCR analysis of samples obtained in A. Samples were normalized to input DNA controls.
FIG. 22 is a graph showing Inhibition of histone modifications by blocking ERK. BMMφ were pre-treated with PD98059 (15 μM) (solid bars) or drug vehicle (open bars) for 1 hour and then stimulated with IC plus LPS (10 ng/mL). Cross-linked chromatin fragments were immunoprecipitated with antibody to phosphorylated histone H3 at Ser 10 or antibody to Sp1. The DNA was purified and analyzed for the presence of IL-10 promoter sequences corresponding to nucleosome −2 by QRT-PCR. The data were plotted graphically as the percentage change relative to drug vehicle (IC/LPS) at 30 min post-stimulation for histone H3 phosphorylation, and at 45 min post-stimulation for Sp1 recruitment. One representative from two independent experiments is presented.
Chromatin immunoprecipitation (ChIP). ChIPs were carried out using the ChIP Assay kit following the manufacturer's protocol (Upstate USA, Inc., Lake Placid, N.Y.). Briefly, 1×10^6 BMMφ were plated overnight in 6-well plates. Cells were stimulated as described in Figure Legends then fixed for 10 min at 37° C. in paraformaldehyde (1% final concentration). […]

[4] = test system: BMMφ; experiment: Cytokine ELISA (IL-10, IL-12) after HDAC inhibitor treatment of BMMφ stimulated with LPS+IC; assay type: cell-based, mice; conditions: TSA added to BMMφ for 1 hr, washed, then 10 ng/ml LPS+IC for 6 hrs
Description: FIG. 21 is a graph showing cytokine production following histone deacetylation. TSA was added to BMMφ for 1 hr and the cells were then washed with warmed medium before stimulation with 10 ng/ml LPS+IC. After LPS+IC stimulation for 6 hrs, the supernatants were collected and IL-10 and IL-12 were measured by ELISA. Results shown are one representative from two independent experiments conducted in triplicate (mean±SD).
To further examine histone acetylation, macrophages were treated with increasing doses of the HDAC inhibitor, TSA, prior to stimulation. IL-10 levels were measured 6 hrs later. […] This observation is consistent with the hypothesis that an increase in histone H3 acetylation was not a pre-requisite for IL-10 gene transcription following stimulation by LPS+IC.

CCCCCCCCCCCCCC(=O)O[C@@H]1[C@@H](C)[C@@]2(O)[C@@H](C=C(CO)C[C@]3(O)C(=O)C(C)=C[C@@H]23)[C@@H]2C(C)(C)[C@]12OC(C)=O [PMA, phorbol 12-myristate 13-acetate]
ERK activation (phosphorylated ERK, Western blot) [1]: activated | IL-10 production (ELISA) of LPS-stimulated macrophages in presence of the ERK activator [2]: induced

C[S+]([O-])c1ccc(-c2nc(-c3ccncc3)c(-c3ccc(F)cc3)[nH]2)cc1 (centres unmarked) [SB203580]
histone H3 phosphorylation at the IL-10 promoter induced by immune complex (ChIP) [3]: decreasing it substantially, but not reducing it to background levels | IL-10 secretion (ELISA) ([2]; BMMφ pretreated 30 min with PD98059 10 μM, SB203580 1 μM or JNK inhibitory peptide 1 μM, then LPS 10 ng/ml ± E-IgG, supernatants after 20 h): substantial inhibition | IL-12 (p40) production (ELISA) ([2]; BMMφ pretreated 30 min with inhibitor, then LPS 10 ng/ml ± E-IgG, 20 h): Neither of these inhibitors decreased | LPS-induced IL-10 production ([2]; BMMφ, LPS 10 ng/ml alone, 20 h, inhibitor pretreatment or 100 nM siRNA): prevented

CC(/C=C/C(=O)NO)=C\[C@@H](C)C(=O)c1ccc(N(C)C)cc1 [TSA, Trichostatin A]
IL-10 production (ELISA) [4]: failed to influence | IL-12 production (ELISA) [4]: substantially inhibit

B1: CSF-1: colony stimulating factor-1, an ERK activating agent identified by the screening method (protein, UniProt P09603 33-554, looked up)
Macrophage colony-stimulating …: EEVSEYCSHMIGSGHLQSLQRLIDSQMETSCQITFEFVDQEQLKDPVCYLKKAFLLVQDIMEDTMRFRDNTPNAIAIVQLQELSLRLKSCFTKDYEEHDKACVRTFYETPLQLLEKVKNVFNETKNLLDKDWNIFSKNCNNSFAECSSQDVVTKPDCNCLYPKAIPSSDPASVSPHQPLAPSMAPVAGLTWEDSEGTEGSSLLPGEQPLHTVDPGSAKQRPPRSTCQSFEPPETPVVKDSTIGGSPQPRPSVGAFNPGMEDILDSAMGTNWVPEEASGEASEIPVPQGTELSPSRPGGGSMQTEPARPSNFLSASSPLPASAKGQQPADVTGTALPRVGPVRPTGQDWNHTPQKTDHPSALLRDPPEPGSPRISSLRPQGLSNPSTLSAQPQLSRSHSSGSVLPLGELEGRRSTRDRRSPAEPEGGPASEGAARPLPRFNSVPLTDTGHERQSEGSFSPQLQESVFHLLVPSVILVLLAVGGLLFYRWRRRSHQEPQRADSPLEQPEGSPLTQDDRQVELPV
ERK activation (phosphorylated ERK, Western blot) [1]: activated | IL-10 production (ELISA) of LPS-stimulated macrophages in presence of the ERK activator ([2]; LPS plus agent versus LPS alone, CSF-1 100 ng/ml added simultaneously with LPS, IL-10 measured 20 hrs later): induce more IL-10 | IL-10 induction by the agent on its own ([2]; macrophages without inflammatory stimulus): does not induce IL-10 on its own
